Entries after “also recorded” stand apart in the source; their conditions may differ.
How the values were obtained:
HepG-2 cells [1] = test: Annexin V-FITC/PI apoptosis assay; type: cell-based, human; conditions: HepG-2, IC50 dose (2.17 μM), 24 h
Procedure: (5) Apoptotic Cell Subpopulation Determination. To support the fact that derivative 7a induces apoptosis in the HepG-2 cancer cell line, annexin V-FITC and PI double-staining assay protocol was used. […] This is evidence that the antiproliferative activities are associated with a proapoptotic effect of the tested compound.
(4) Apoptotic Cell Subpopulation Determination. The annexin-V-FITC assay for compound 7a on HepG-2 cells was performed according to the reported procedure (Supplementary data).

Bcl-2 = Bcl-2 level in HepG-2 cells; type: cell-based, human; conditions: for Bcl-2 Conc.: HepG-2 cells treated with compound; for Bcl-2 Fold: HepG-2 cells, versus control
Description: (§1) (2) Effects on Bcl-2 Family Proteins. The Bcl-2 family proteins are vital regulators of apoptosis cell death. Members of this family include the proapoptotic factor Bax which promotes cell death and the prosurvival (antiapoptotic) Bcl-2 which suppresses cell death. […] Results are expressed in Table 3.
(§2) (2) Effects on Bcl-2 Family Proteins. […] (Supplementary data).

HepG-2 cells [2] = test: Cell cycle analysis by flow cytometry; type: cell-based, human; conditions: HepG-2, compound at its IC50 concentration
Procedure: (3) Cell Cycle Analysis. For further investigation of the apoptotic capacity of compound 7a, flow cytometric analysis was carried out on the HepG-2 cancer cell line treated with the tested compound at its IC50 concentrations using untreated HepG-2 cancer cells as a negative control. […] Accumulation of cells at the G2-M phase for 7a was estimated to be 46.74% versus 23.11% accumulation for control HepG-2 cells.
(3) Cell Cycle Analysis. According to the method described by Léonce et al., the flow cytometric analysis for compound 7a was performed (Supplementary data).

MCF-7 = test: MTT antiproliferative assay, MCF-7; type: cell-based; conditions: Homo sapiens, MCF7, breast cancer MCF-7
Procedure: (§3) The in vitro antiproliferative activities of the newly synthesized compounds were evaluated against a panel of three human tumor cell lines, namely, breast cancer (MCF-7), hepatocellular carcinoma (HepG-2), and colorectal carcinoma (HCT-116) using the standard MTT method. The tested cell lines were selected depending on their VEGF overexpression. Sorafenib, the lead drug, was coassayed as a positive control.
(§4) The antiproliferative activity of the synthesized compounds was evaluated using MTT protocol as described (Supplementary data (available here)).

HepG-2 = test: MTT antiproliferative assay, HepG-2; type: cell-based; conditions: Homo sapiens, HepG2, hepatocellular carcinoma HepG-2
Procedure: as §3, §4

[3] = test system: vascular smooth muscle cells (VSMCs); test: Vascular smooth muscle cell proliferation; type: cell-based; conditions: 2.5, 5, and 10 μM, 48 h
Procedure: In order to examine its effect on the proliferation of vascular smooth muscle cells (VSMCs), VSMCs were treated with increasing concentrations of compound 7a (2.5, 5, and 10 μM) for 48 h. The cellular proliferation results are illustrated in Figure 9.
VSMCs were isolated and cultured following the reported method (Supplementary data).

VEGFR-2 = VEGFR-2 (Homo sapiens, UniProt P35968); test: In vitro VEGFR-2 enzyme inhibition assay; type: biochemical; conditions: read-out: IC50 against VEGFR-2
[4] = test system: WI-38 cell line (normal human lung fibroblasts); test: MTT cytotoxicity against normal cells WI-38; type: cell-based; conditions: normal human lung fibroblasts WI-38
Procedure: The cytotoxicity values of the synthesized compounds against the WI-38 cell line (normal human lung fibroblasts) were also evaluated in vitro.
as §4

caspase-3 = test: Active caspase-3 level in HepG-2 cells; type: cell-based, human; conditions: for Caspase 3 Conc.: HepG-2 cells treated with compound; for Caspase 3 Fold: HepG-2 cells, versus control
Description: (1) Effects on the Levels of Active Caspase-3. A significant mechanism by which anticancer agents can affect cancer cells is apoptosis. Apoptosis is a process of automated cell death. The apoptosis mechanism is typically mediated by a group of proteases called caspases. Caspase-3 is activated in every mammalian cell type provoking the cell to die, considered one of the apoptosis marks.
(1) Effects on the Levels of Active Caspase-3. […] (Supplementary data).

BAX = BAX level in HepG-2 cells; type: cell-based, human; conditions: for BAX Conc.: HepG-2 cells treated with compound; for BAX Fold: HepG-2 cells, versus control
Description: as §1, §2

[5] = test system: VEGFR-2 protein expression; test: Western blot of VEGFR-2 protein expression; type: cell-based, human; conditions: HepG-2 cells, 10 h exposure, versus blank
Description: (4) Effect of Compound 7a on VEGFR-2 Protein Expression.

TNF-α = TNF-α in HepG-2 supernatant (ELISA); type: cell-based, human
Description: (1) Estimation of Human Tumor Necrosis Factor Alpha (TNF-α) in HepG-2 Supernatant. […] Celecoxib, a potent inhibitor of TNF-α-induced cytokine expressions, was used as a positive control. […] Among the tested compounds, compound 7a caused a remarkably significant reduction in TNF-α levels (87%) in comparison to celecoxib (86%).
The levels of TNF-α in cell culture supernatants were estimated by the ELISA technique according to the reported procedure.

HCT-116 = test: MTT antiproliferative assay, HCT-116; type: cell-based; conditions: Homo sapiens, colorectal carcinoma HCT-116
Procedure: as §3, §4

[6] = test system: MCF-7, HepG-2, and HCT-116; test: MTT antiproliferative assay, panel of three tumor cell lines (range over lines); type: cell-based; conditions: Homo sapiens, range over the three cancer cell lines, read-out: cytotoxic IC50, range over MCF-7, HepG-2 and HCT-116
Procedure: as §3, §4

Sequence of VEGFR-2 (P35968 20-1356): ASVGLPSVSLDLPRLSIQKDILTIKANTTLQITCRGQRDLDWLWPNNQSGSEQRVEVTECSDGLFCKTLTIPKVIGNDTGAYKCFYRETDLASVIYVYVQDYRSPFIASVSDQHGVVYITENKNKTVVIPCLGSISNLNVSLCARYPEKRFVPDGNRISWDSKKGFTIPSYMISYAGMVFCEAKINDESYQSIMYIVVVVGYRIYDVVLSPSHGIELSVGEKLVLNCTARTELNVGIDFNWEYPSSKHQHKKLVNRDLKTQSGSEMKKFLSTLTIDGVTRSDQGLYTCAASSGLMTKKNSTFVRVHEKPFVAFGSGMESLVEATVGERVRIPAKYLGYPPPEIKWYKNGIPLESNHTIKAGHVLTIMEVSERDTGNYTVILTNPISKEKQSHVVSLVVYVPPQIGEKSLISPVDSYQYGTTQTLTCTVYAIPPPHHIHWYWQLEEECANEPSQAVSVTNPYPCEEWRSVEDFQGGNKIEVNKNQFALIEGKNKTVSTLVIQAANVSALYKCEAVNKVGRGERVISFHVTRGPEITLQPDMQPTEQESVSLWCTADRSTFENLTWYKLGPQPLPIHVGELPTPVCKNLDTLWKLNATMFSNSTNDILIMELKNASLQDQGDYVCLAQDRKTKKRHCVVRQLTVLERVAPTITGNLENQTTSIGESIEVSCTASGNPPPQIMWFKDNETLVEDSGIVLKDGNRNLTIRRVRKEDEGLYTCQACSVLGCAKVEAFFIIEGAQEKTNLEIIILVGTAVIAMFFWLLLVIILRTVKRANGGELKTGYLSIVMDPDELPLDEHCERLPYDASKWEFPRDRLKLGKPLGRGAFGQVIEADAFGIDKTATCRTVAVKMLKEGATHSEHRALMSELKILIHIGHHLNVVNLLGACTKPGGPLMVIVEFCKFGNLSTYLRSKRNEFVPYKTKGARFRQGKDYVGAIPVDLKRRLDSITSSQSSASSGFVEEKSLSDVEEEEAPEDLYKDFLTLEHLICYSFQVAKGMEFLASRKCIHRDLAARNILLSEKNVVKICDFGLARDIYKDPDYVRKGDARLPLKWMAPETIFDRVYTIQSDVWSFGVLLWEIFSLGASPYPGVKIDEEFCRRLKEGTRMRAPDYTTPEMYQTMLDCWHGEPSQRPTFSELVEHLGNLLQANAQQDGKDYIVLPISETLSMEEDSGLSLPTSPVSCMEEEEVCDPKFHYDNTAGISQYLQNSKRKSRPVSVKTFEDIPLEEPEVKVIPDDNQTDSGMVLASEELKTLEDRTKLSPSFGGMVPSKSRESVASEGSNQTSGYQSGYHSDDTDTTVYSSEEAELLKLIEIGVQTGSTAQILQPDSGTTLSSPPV

Row | IC50 (MCF-7) [µM] | IC50 (VEGFR-2) [µM] | IC50 (HCT-116) [µM] | melting point [°C] | Structure (SMILES) | Bcl-2 Conc. (Bcl-2) [pg/mL] | Bcl-2 Fold (Bcl-2) [fold] | IC50 (HepG-2) [µM] | IC50 [4] [µM] | Caspase 3 Conc. (caspase-3) [pg/mL] | BAX Conc. (BAX) [pg/mL] | BAX Fold (BAX) [fold] | TNF-α % inhibition (TNF-α) [%] | IC50 [6] [µM] | Caspase 3 Fold (caspase-3) [fold] | other results
1 | 1.37 | 2.17 | 1.46 |  | COc1cccc(NC(=O)c2ccc(NC(=O)c3cccnc3)cc2)c1 [Compound 7a, N-(4-((3-Methoxyphenyl)carbamoyl)phenyl)nicotinamide] | 1.25 | 0.23 | 1.05 | 60.8 | 401.15 | 261.4 | 12.11 | 87 |  |  | early apoptotic population (HepG-2 cells [1]): 7.41%; late apoptotic population (HepG-2 cells [1]): 6.80%; accumulation of cells at the G2-M phase (HepG-2 cells [2]): 46.74%; apoptotic cells at the pre-G1 phase (HepG-2 cells [2]): 10.5%; percentage of cells at G1 (HepG-2 cells [2]): 30.15%; percentage of cells at the S phase (HepG-2 cells [2]): 22.11%; effect on VSMC proliferation [3]: potent inhibitory effect; also recorded: significant antiproliferative effect at all concentrations tested; effect on VEGFR-2 protein expression [5]: downregulated the expression of VEGFR-2 protein
2 | 20.5 |  | 18.3 | 194 to 197 | Cc1ccccc1NC(=O)c1ccc(NC(=O)c2cccnc2)cc1 [Compound 7f, N-(4-(o-Tolylcarbamoyl)phenyl)nicotinamide] |  |  | 31.4 | 157 |  |  |  |  | 14.1 to 31.4 |  | 
3 | 19.2 |  | 22.7 | 217 to 219 | Cc1cccc(NC(=O)c2ccc(NC(=O)c3cccnc3)cc2)c1 [Compound 7h, N-(4-(m-Tolylcarbamoyl)phenyl)nicotinamide] |  |  | 14.9 | 95.1 |  |  |  |  | 14.1 to 31.4 |  | 
4 | 16.8 |  | 15.1 | 219 to 222 | Cc1ccc(NC(=O)c2ccc(NC(=O)c3cccnc3)cc2)cc1 [Compound 7j, N-(4-(p-Tolylcarbamoyl)phenyl)nicotinamide] |  |  | 14.1 | 84.9 |  |  |  |  | 14.1 to 31.4 |  | 
5 | 17.1 |  | 18.7 | 254 to 256 | Cc1ccc(NC(=O)c2ccc(NC(=O)c3cccnc3)cc2)c(C)c1 [Compound 7k, N-(4-((2,4-Dimethylphenyl)carbamoyl)phenyl)nicotinamide] |  |  | 20.1 | 75.3 |  |  |  |  | 14.1 to 31.4 |  | 
6 | 6.29 | 8.09 | 5.72 |  | O=C(N/N=C/c1ccc([N+](=O)[O-])cc1)c1ccc(NC(=O)c2cccnc2)cc1 [Compound 11c, (E)-N-(4-(2-(4-Nitrobenzylidene)hydrazine-1-carbonyl)phenyl)-nicotinamide] | 2.81 | 0.52 | 7.31 | 52.3 | 271.41 | 133.2 | 6.17 | 31 | 3.47 to 7.31 | 5.28 | 
7 | 6.15 | 4.17 | 3.47 |  | O=C(N/N=C/c1ccccc1Cl)c1ccc(NC(=O)c2cccnc2)cc1 [Compound 11f, (E)-N-(4-(2-(2-Chlorobenzylidene)hydrazine-1-carbonyl)phenyl)-nicotinamide] | 2.25 | 0.42 | 7.05 | 62.4 | 292.11 | 142.5 | 6.60 | 60 | 3.47 to 7.31 | 5.68 | 
8 | 5.73 | 6.12 | 4.8 |  | CN(C)c1ccc(/C=N/NC(=O)c2ccc(NC(=O)c3cccnc3)cc2)cc1 [Compound 11g, (E)-N-(4-(2-(4-(Dimethylamino)benzylidene)hydrazine-1-carbonyl)phenyl)-nicotinamide] | 2.55 | 0.48 | 6.42 | 70.1 | 324.36 | 160.2 | 7.42 | 47 | 3.47 to 7.31 | 6.31 | 
9 | 2.67 | 6.57 | 4.19 |  | O=C(CSc1nnc(-c2cccnc2)o1)Nc1ccccc1 [Compound 18b, N-Phenyl-2-((5-(pyridin-3-yl)-1,3,4-oxadiazol-2-yl)thio)acetamide] | 2.51 | 0.47 | 6.11 | 64.3 | 310.75 | 154.4 | 7.15 | 54 |  | 6.04 | 

From PMC8568530, “Inhibition of Vascular Smooth Muscle and Cancer Cell Proliferation by New VEGFR Inhibitors and Their Immunomodulator Effect: Design, Synthesis, and Biological Evaluation” (Oxidative Medicine and Cellular Longevity, 2021)
